What follows are molecules tested against FGFR2 (Homo sapiens, UniProt P21802) (assay: FGFR2 Kinase Protocol - Condition 2 (Reaction Biology HotSpot radiometric kinase assay, no preincubation)). Details: poly[Glu:Tyr] (4:1) 0.2 mg/ml, ATP 100 microM, 2 hr room temperature.
Type: biochemical
Protocol: Example 2: FGFR2 Kinase Protocol—Condition 2
The Reaction Biology HotSpot assay platform (http://www.reactionbiology.com) was used to measure kinase/inhibitor interactions as described previously (Anastassiadis et al., 2011). In brief, for each reaction, kinase and substrate were mixed in a buffer containing 20 mM HEPES (pH 7.5), 10 mM MgCl2, 1 mM EGTA, 0.02% Brij35, 0.02 mg/mL BSA, 0.1 mM Na3VO4, 2 mM DTT, and 1% DMSO. All compounds were in powder form and freshly solubilized in DMSO for assays. Compounds were then added to each reaction mixture via acoustic dispense using an ECHO 550 nanoliter dispenser. For Human FGFR2 wildtype testing, a peptide substrate, poly[Glu:Tyr] (4:1) was used to promote the reaction at a concentration of 0.2 mg/ml. For Human FGFR2 (V564F) testing, a peptide substrate, poly[Glu:Tyr] (4:1) was used to promote the reaction at a concentration of 0.2 mg/ml. ATP concentration for all assays was maintained at 100 micromolar. Compounds were tested in 10-dose IC50 mode with a 3-fold serial dilution. Compounds were added to plates and ATP was added directly to the wells. ATP (Sigma-Aldrich, St. Louis, MO 63178) and [g33P] ATP (specific activity 10 microCi/microliter) purchased at PerkinElmer (Boston, MA, 02118 Cat #BLU 003H250UC) were added at a final total concentration of 100 microM to each well with no preincubation. Reactions were carried out at room temperature for 2 hr and spotted onto P81 ion exchange cellulose chromatography paper (Reaction Biology). Filter paper was washed in 0.75% phosphoric acid to remove unincorporated ATP. The percent remaining kinase activity relative to a vehicle-containing (DMSO) kinase reaction was calculated for each kinase/inhibitor pair. IC50 values were calculated using Dotmatics Knowledge Solutions Studies curve fitting (Dotmatics, Bishops Stortford, UK, CM23).

FGFR2, sequence (P21802 22-821): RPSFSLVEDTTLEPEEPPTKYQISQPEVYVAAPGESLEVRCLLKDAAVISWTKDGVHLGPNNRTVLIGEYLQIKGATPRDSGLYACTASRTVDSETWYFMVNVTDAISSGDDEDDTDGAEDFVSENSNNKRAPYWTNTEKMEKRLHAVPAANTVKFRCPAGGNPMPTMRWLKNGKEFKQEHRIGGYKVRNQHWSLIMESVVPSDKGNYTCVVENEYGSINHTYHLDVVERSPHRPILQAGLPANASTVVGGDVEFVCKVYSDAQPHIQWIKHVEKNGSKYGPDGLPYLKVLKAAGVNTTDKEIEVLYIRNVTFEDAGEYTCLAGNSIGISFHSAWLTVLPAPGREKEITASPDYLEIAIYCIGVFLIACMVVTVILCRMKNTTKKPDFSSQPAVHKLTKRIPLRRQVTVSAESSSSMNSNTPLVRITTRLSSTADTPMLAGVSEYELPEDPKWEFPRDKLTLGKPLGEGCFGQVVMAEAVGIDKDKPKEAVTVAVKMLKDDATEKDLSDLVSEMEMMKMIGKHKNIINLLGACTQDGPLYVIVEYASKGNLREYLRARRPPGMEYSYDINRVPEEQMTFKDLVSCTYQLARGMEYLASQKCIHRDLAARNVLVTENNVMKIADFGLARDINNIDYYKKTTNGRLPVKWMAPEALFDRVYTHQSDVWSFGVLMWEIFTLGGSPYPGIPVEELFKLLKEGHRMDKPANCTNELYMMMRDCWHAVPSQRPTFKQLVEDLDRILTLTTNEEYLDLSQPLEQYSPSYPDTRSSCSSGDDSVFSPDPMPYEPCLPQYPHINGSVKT

| SMILES | IC50 |
| --- | --- |
| C=CC(=O)N1C[C@@H](n2nc(C#Cc3c(F)cc4c(nc(C)n4CC)c3F)c3c(N)ncnc32)C[C@@H]1COC [Example 32, 1-((2R,4S)-4-(4-amino-3-((1-ethyl-4,6-difluoro-2-methyl-1H-benzo[d]imidazol-5-yl)ethynyl)-1H-pyrazolo[3,4-d]pyrimidin-1-yl)-2-(methoxymethyl)pyrrolidin-1-yl)prop-2-en-1-one] | ≤ 100 nM |
| C=CC(=O)N1C[C@@H](n2nc(C#Cc3c(F)cc4c(nc(C)n4CC)c3F)c3c(N)nccc32)C[C@@H]1COC [Example 33, 1-((2R,4S)-4-(4-amino-3-((1-ethyl-4,6-difluoro-2-methyl-1H-benzo[d]imidazol-5-yl)ethynyl)-1H-pyrazolo[4,3-c]pyridin-1-yl)-2-(methoxymethyl)pyrrolidin-1-yl)prop-2-en-1-one] | ≤ 100 nM |
| C=CC(=O)N1C[C@@H](n2nc(C#Cc3ccc4c(cnn4CC)c3)c3c(N)ncnc32)C[C@@H]1COC [Example 34, 1-((2R,4S)-4-(4-amino-3-((1-ethyl-1H-indazol-5-yl)ethynyl)-1H-pyrazolo[3,4-d]pyrimidin-1-yl)-2-(methoxymethyl)pyrrolidin-1-yl)prop-2-en-1-one] | ≤ 100 nM |
| C=CC(=O)N1C[C@@H](n2nc(C#Cc3ccc4c(cnn4C)c3)c3c(N)nccc32)C[C@@H]1COC [Example 35, 1-[(2R,4S)-4-[4-amino-3-[2-(1-methylindazol-5-yl)ethynyl]pyrazolo[4,3-c]pyridin-1-yl]-2-(methoxymethyl)pyrrolidin-1-yl]prop-2-en-1-one] | 100 to 1000 nM |
| C=CC(=O)N1C[C@@H](n2nc(C#Cc3ccc4nn(C)cc4c3)c3c(N)nccc32)C[C@@H]1COC [Example 36, 1-[(2R,4S)-4-[4-amino-3-[2-(2-methylindazol-5-yl)ethynyl]pyrazolo[4,3-c]pyridin-1-yl]-2-(methoxymethyl)pyrrolidin-1-yl]prop-2-en-1-one] | 100 to 1000 nM |
| C=CC(=O)N1C[C@@H](n2nc(C#Cc3ccc4c(cnn4CC)c3)c3c(N)nccc32)C[C@@H]1COC [Example 37, 1-((2R,4S)-4-(4-amino-3-((1-ethyl-1H-indazol-5-yl)ethynyl)-1H-pyrazolo[4,3-c]pyridin-1-yl)-2-(methoxymethyl)pyrrolidin-1-yl)prop-2-en-1-one] | ≤ 100 nM |
| C=CC(=O)N1C[C@@H](n2nc(C#Cc3ccc4nn(CC)cc4c3)c3c(N)nccc32)C[C@@H]1COC [Example 38, 1-[(2R,4S)-4-[4-amino-3-[2-(2-ethylindazol-5-yl)ethynyl]pyrazolo[4,3-c]pyridin-1-yl]-2-(methoxymethyl)pyrrolidin-1-yl]prop-2-en-1-one] | 1000 to 10000 nM |
| C=CC(=O)N1C[C@@H](n2nc(C#Cc3c(F)cc4c(nc(C)n4C)c3F)c3c(N)nccc32)C[C@@H]1CC#N [Example 39, 2-((2R,4S)-1-acryloyl-4-(4-amino-3-((4,6-difluoro-1,2-dimethyl-1H-benzo[d]imidazol-5-yl)ethynyl)-1H-pyrazolo[4,3-c]pyridin-1-yl)pyrrolidin-2-yl)acetonitrile] | ≤ 100 nM |
| C=CC(=O)N1C[C@@H](n2nc(C#Cc3ccc4c(cnn4C)c3)c3c(N)ncnc32)C[C@@H]1COC [Example 40, 1-((2R,4S)-4-(4-amino-3-((1-methyl-1H-indazol-5-yl)ethynyl)-1H-pyrazolo[3,4-d]pyrimidin-1-yl)-2-(methoxymethyl)pyrrolidin-1-yl)prop-2-en-1-one] | ≤ 100 nM |
| C=CC(=O)N1C[C@@H](n2nc(C#Cc3ccc4nn(C)cc4c3)c3c(N)ncnc32)C[C@@H]1COC [Example 41, 1-[(2R,4S)-4-[4-amino-3-[2-(2-methylindazol-5-yl)ethynyl]pyrazolo[3,4-d]pyrimidin-1-yl]-2-(methoxymethyl)pyrrolidin-1-yl]prop-2-en-1-one] | 100 to 1000 nM |
| C=CC(=O)N1C[C@@H](n2nc(C#Cc3ccc4nn(CC)cc4c3)c3c(N)ncnc32)C[C@@H]1COC [Example 42, 1-[(2R,4S)-4-[4-amino-3-[2-(2-ethylindazol-5-yl)ethynyl]pyrazolo[3,4-d]pyrimidin-1-yl]-2-(methoxymethyl)pyrrolidin-1-yl]prop-2-en-1-one] | 100 to 1000 nM |
| C=CC(=O)N1C[C@@H](n2nc(C#Cc3ccc4c(c3)nc(C)n4C)c3c(N)nccc32)C[C@@H]1CC#N [Example 43, 2-((2R,4S)-1-acryloyl-4-(4-amino-3-((1,2-dimethyl-1H-benzo[d]imidazol-5-yl)ethynyl)-1H-pyrazolo[4,3-c]pyridin-1-yl)pyrrolidin-2-yl)acetonitrile] | ≤ 100 nM |
| C=CC(=O)N1C[C@@H](n2nc(C#Cc3c(F)cc4nn(C)cc4c3F)c3c(N)ncnc32)C[C@@H]1COC [Example 44, 1-((2R,4S)-4-(4-amino-3-((4,6-difluoro-2-methyl-2H-indazol-5-yl)ethynyl)-1H-pyrazolo[3,4-d]pyrimidin-1-yl)-2-(methoxymethyl)pyrrolidin-1-yl)prop-2-en-1-one] | ≤ 100 nM |
| C=CC(=O)N1C[C@@H](n2nc(C#Cc3c(F)cc4nn(C)cc4c3F)c3c(N)nccc32)C[C@@H]1COC [Example 45, 1-((2R,4S)-4-(4-amino-3-((4,6-difluoro-2-methyl-2H-indazol-5-yl)ethynyl)-1H-pyrazolo[4,3-c]pyridin-1-yl)-2-(methoxymethyl)pyrrolidin-1-yl)prop-2-en-1-one] | 100 to 1000 nM |
| C=CC(=O)N1C[C@@H](n2nc(C#Cc3ccc4c(c3)nc(C(F)(F)F)n4C)c3c(N)ncnc32)C[C@@H]1COC [Example 46, 1-((2R,4S)-4-(4-amino-3-((1-methyl-2-(trifluoromethyl)-1H-benzo[d]imidazol-5-yl)ethynyl)-1H-pyrazolo[3,4-d]pyrimidin-1-yl)-2-(methoxymethyl)pyrrolidin-1-yl)prop-2-en-1-one] | ≤ 100 nM |
| C=CC(=O)N1C[C@@H](n2nc(C#Cc3ccc4c(c3)nc(C(F)(F)F)n4C)c3c(N)nccc32)C[C@@H]1COC [Example 47, 1-((2R,4S)-4-(4-amino-3-((1-methyl-2-(trifluoromethyl)-1H-benzo[d]imidazol-5-yl)ethynyl)-1H-pyrazolo[4,3-c]pyridin-1-yl)-2-(methoxymethyl)pyrrolidin-1-yl)prop-2-en-1-one] | ≤ 100 nM |
| C=CC(=O)N1C[C@@H](n2nc(C#Cc3c(F)cc4c(cnn4C)c3F)c3c(N)ncnc32)C[C@@H]1COC [Example 48, 1-((2R,4S)-4-(4-amino-3-((4,6-difluoro-1-methyl-1H-indazol-5-yl)ethynyl)-1H-pyrazolo[3,4-d]pyrimidin-1-yl)-2-(methoxymethyl)pyrrolidin-1-yl)prop-2-en-1-one] | ≤ 100 nM |
| C=CC(=O)N1C[C@@H](n2nc(C#Cc3c(F)cc4nn(CC)cc4c3F)c3c(N)ncnc32)C[C@@H]1COC [Example 49, 1-((2R,4S)-4-(4-amino-3-((2-ethyl-4,6-difluoro-2H-indazol-5-yl)ethynyl)-1H-pyrazolo[3,4-d]pyrimidin-1-yl)-2-(methoxymethyl)pyrrolidin-1-yl)prop-2-en-1-one] | 100 to 1000 nM |
| C=CC(=O)N1C[C@@H](n2nc(C#Cc3c(F)cc4c(cnn4C)c3F)c3c(N)nccc32)C[C@@H]1COC [Example 50, 1-((2R,4S)-4-(4-amino-3-((4,6-difluoro-1-methyl-1H-indazol-5-yl)ethynyl)-1H-pyrazolo[4,3-c]pyridin-1-yl)-2-(methoxymethyl)pyrrolidin-1-yl)prop-2-en-1-one] | ≤ 100 nM |
| C=CC(=O)N1C[C@@H](n2nc(C#Cc3c(F)cc4nn(CC)cc4c3F)c3c(N)nccc32)C[C@@H]1COC [Example 51, 1-((2R,4S)-4-(4-amino-3-((2-ethyl-4,6-difluoro-2H-indazol-5-yl)ethynyl)-1H-pyrazolo[4,3-c]pyridin-1-yl)-2-(methoxymethyl)pyrrolidin-1-yl)prop-2-en-1-one] | 100 to 1000 nM |
| C=CC(=O)N1C[C@@H](n2nc(C#Cc3ccc4c(c3)nc(C)n4CC)c3c(N)ncnc32)C[C@@H]1CC#N [Example 52, 2-((2R,4S)-1-acryloyl-4-(4-amino-3-((1-ethyl-2-methyl-1H-benzo[d]imidazol-5-yl)ethynyl)-1H-pyrazolo[3,4-d]pyrimidin-1-yl)pyrrolidin-2-yl)acetonitrile] | ≤ 100 nM |
| C=CC(=O)N1C[C@@H](n2nc(C#Cc3ccc4c(c3)nc(C)n4CC)c3c(N)nccc32)C[C@@H]1CC#N [Example 53, 2-[(2R,4S)-4-[4-Amino-3-[2-(1-ethyl-2-methyl-1,3-benzodiazol-5-yl)ethynyl]pyrazolo[4,3-c]pyridin-1-yl]-1-(prop-2-enoyl)pyrrolidin-2-yl]acetonitrile; formic acid] | ≤ 100 nM |
| C=CC(=O)N1C[C@@H](n2nc(C#Cc3c(F)cc4c(ncn4C)c3F)c3c(N)ncnc32)C[C@@H]1COC(F)(F)F [Example 54, 1-[(2R,4S)-4-[4-Amino-3-[2-(4,6-difluoro-1-methyl-1,3-benzodiazol-5-yl)ethynyl]pyrazolo[3,4-d]pyrimidin-1-yl]-2-[(trifluoromethoxy)methyl]pyrrolidin-1-yl]prop-2-en-1-one] | ≤ 100 nM |

— patent US20230374015A1, “INHIBITORS OF FIBROBLAST GROWTH FACTOR RECEPTOR KINASES” (Kinnate Biopharma Inc., priority 2020, published 2023)
